Laboratory results published in patent EP4001279A1, “NOVEL SPIROPYRROLIDINE DERIVED ANTIVIRAL AGENTS” (Enanta Pharmaceuticals, Inc., priority 2020, dated 2022).

Test system: 229E human corona virus (hCoV)
Assay: 229E live virus assay (CPE, ATPlite readout in MRC-5 cells)
Assay type: cell-based, hCoV-229E
Conditions: Human coronavirus 229E, MRC5, hCoV-229E live virus, MOI 0.05, ATPlite readout, run in duplicate

Row | SMILES | EC50 [nM]
1 | CC(C)C[C@@H](C(=O)N1C[C@]2(C[C@H]1C(=O)CO)C(=O)Nc1ccccc12)N(C)C(=O)c1cc2c(F)cc(F)cc2[nH]1 [Example 157] | 100 to 1000
2 | CC(C)C[C@@H](C(=O)N1C[C@]2(C[C@H]1C(=O)CO)C(=O)Nc1ccccc12)N(C)C(=O)c1cc2c(F)cc(F)c(F)c2[nH]1 [Example 158] | 100 to 1000
3 | CC(C)C[C@@H](C(=O)N1C[C@]2(C[C@H]1C(=O)CCl)C(=O)Nc1ccccc12)N(C)C(=O)c1cc2c(F)cc(F)c(F)c2[nH]1 [Example 159] | > 1000
4 | CC(C)C[C@@H](C(=O)N1C[C@]2(C[C@H]1C#N)C(=O)Nc1ccccc12)N(C(=O)OCc1ccccc1)C(C)C [Example 160] | > 1000
5 | CC(C)N(C(=O)OC(C)(C)C)[C@@H](Cc1ccccc1)C(=O)N1C[C@]2(C[C@H]1C#N)C(=O)Nc1ccccc12 [Example 161] | > 1000
6 | CC(C)C[C@@H](C(=O)N1C[C@]2(C[C@H]1C#N)C(=O)Nc1ccccc12)N(C)C(=O)c1cccc(Cl)c1 [Example 167] | < 100
7 | CC(C)C[C@@H](C(=O)N1C[C@]2(C[C@H]1C#N)C(=O)Nc1ccccc12)N(C)C(=O)c1ccc(Cl)cc1Cl [Example 168] | < 100
8 | CC(C)C[C@@H](C(=O)N1C[C@]2(C[C@H]1C#N)C(=O)Nc1ccccc12)N(C)C(=O)c1c(Cl)ccc(Cl)c1F [Example 169] | < 100
9 | COc1ccc(Cl)cc1C(=O)N(C)[C@@H](CC(C)C)C(=O)N1C[C@]2(C[C@H]1C#N)C(=O)Nc1ccccc12 [Example 170] | < 100
10 | CC(C)C[C@@H](C(=O)N1C[C@]2(C[C@H]1C#N)C(=O)Nc1ccccc12)N(C)C(=O)c1cc(Cl)c(F)cc1F [Example 171] | < 100
11 | CC(C)C[C@@H](C(=O)N1C[C@]2(C[C@H]1C#N)C(=O)Nc1ccccc12)N(C)C(=O)c1cc(Cl)cc(Cl)c1 [Example 172] | < 100
12 | CC(C)C[C@@H](C(=O)N1C[C@]2(C[C@H]1C#N)C(=O)Nc1ccccc12)N(C)C(=O)c1cc(F)cc(Cl)c1 [Example 173] | < 100
13 | CC(C)C[C@@H](C(=O)N1C[C@]2(C[C@H]1C#N)C(=O)Nc1ccccc12)N(C)C(=O)c1ccc(Cl)c(C(F)(F)F)c1 [Example 174] | < 100
14 | CC(C)C[C@@H](C(=O)N1C[C@]2(C[C@H]1C#N)C(=O)Nc1ccccc12)N(C)C(=O)c1ccc(Cl)c(F)c1F [Example 175] | < 100
15 | CC(C)C[C@@H](C(=O)N1C[C@]2(C[C@H]1C#N)C(=O)Nc1ccccc12)N(C)C(=O)c1ccc(F)c(C(F)(F)F)c1 [Example 177] | < 100
16 | CC(C)C[C@@H](C(=O)N1C[C@]2(C[C@H]1C#N)C(=O)Nc1ccccc12)N(C)C(=O)c1ccc(F)c(F)c1 [Example 178] | < 100
17 | CC(C)C[C@@H](C(=O)N1C[C@]2(C[C@H]1C#N)C(=O)Nc1ccccc12)N(C)C(=O)c1ccc(OC(F)(F)F)c(F)c1 [Example 179] | < 100
18 | COc1ccc(C(=O)N(C)[C@@H](CC(C)C)C(=O)N2C[C@]3(C[C@H]2C#N)C(=O)Nc2ccccc23)cc1C(F)(F)F [Example 181] | < 100
19 | COc1ccc(C(=O)N(C)[C@@H](CC(C)C)C(=O)N2C[C@]3(C[C@H]2C#N)C(=O)Nc2ccccc23)cc1F [Example 182] | < 100
20 | CC(C)C[C@@H](C(=O)N1C[C@]2(C[C@H]1C#N)C(=O)Nc1ccccc12)N(C)C(=O)c1c(Cl)cc(Cl)cc1Cl [Example 185] | < 100
21 | CC(C)C[C@@H](C(=O)N1C[C@]2(C[C@H]1C#N)C(=O)Nc1ccccc12)N(C)C(=O)c1c(Cl)cc(F)cc1Cl [Example 186] | < 100
22 | CC(C)C[C@@H](C(=O)N1C[C@]2(C[C@H]1C#N)C(=O)Nc1ccccc12)N(C)C(=O)c1cc(Cl)cc(C#N)c1 [Example 187] | < 100
23 | CC(C)C[C@@H](C(=O)N1C[C@]2(C[C@H]1C#N)C(=O)Nc1ccccc12)N(C)C(=O)c1cccc(OC(F)F)c1 [Example 188] | < 100

Row | SMILES | EC50 [nM]
24 | CC(C)C[C@@H](C(=O)N1C[C@]2(C[C@H]1C#N)C(=O)Nc1ccccc12)N(C)C(=O)c1cccc(OC(F)(F)F)c1 [Example 189] | < 100
25 | CC(C)C[C@@H](C(=O)N1C[C@]2(C[C@H]1C#N)C(=O)Nc1ccccc12)N(C)C(=O)c1ccc2c(c1)OC(F)(F)O2 [Example 190] | < 100
26 | COc1ccnc(C(=O)N(C)[C@@H](CC(C)C)C(=O)N2C[C@]3(C[C@H]2C#N)C(=O)Nc2ccccc23)c1 [Example 192] | < 100
27 | COc1ccc(C(=O)N(C)[C@@H](CC(C)C)C(=O)N2C[C@]3(C[C@H]2C#N)C(=O)Nc2ccccc23)nc1 [Example 193] | < 100
28 | CC(C)C[C@@H](C(=O)N1C[C@]2(C[C@H]1C#N)C(=O)Nc1ccccc12)N(C)C(=O)c1ccncc1 [Example 194] | < 100
29 | CC(C)C[C@@H](C(=O)N1C[C@]2(C[C@H]1C#N)C(=O)Nc1ccccc12)N(C)C(=O)c1cncc(C(F)(F)F)c1 [Example 195] | < 100
30 | CC(C)C[C@@H](C(=O)N1C[C@]2(C[C@H]1C#N)C(=O)Nc1ccccc12)N(C)C(=O)c1cncc(F)c1 [Example 196] | < 100
31 | CC(C)C[C@@H](C(=O)N1C[C@]2(C[C@H]1C#N)C(=O)Nc1ccccc12)N(C)C(=O)c1cc(F)ccn1 [Example 197] | < 100
32 | CC(C)C[C@@H](C(=O)N1C[C@]2(C[C@H]1C#N)C(=O)Nc1ccccc12)N(C)C(=O)c1ccc(F)cn1 [Example 198] | < 100
33 | CC(C)C[C@@H](C(=O)N1C[C@]2(C[C@H]1C#N)C(=O)Nc1ccccc12)N(C)C(=O)c1cccc(N)n1 [Example 199] | < 100
34 | CC(C)C[C@@H](C(=O)N1C[C@]2(C[C@H]1C#N)C(=O)Nc1ccccc12)N(C)C(=O)c1cnccn1 [Example 200] | < 100
35 | CC(C)C[C@@H](C(=O)N1C[C@]2(C[C@H]1C#N)C(=O)Nc1ccccc12)N(C)C(=O)c1cn(C)cn1 [Example 201] | < 100
36 | CC(C)C[C@@H](C(=O)N1C[C@]2(C[C@H]1C#N)C(=O)Nc1ccccc12)N(C)C(=O)c1ccn[nH]1 [Example 202] | < 100
37 | CC(C)C[C@@H](C(=O)N1C[C@]2(C[C@H]1C#N)C(=O)Nc1ccccc12)N(C)C(=O)c1ccnn1C [Example 203] | < 100
38 | CC(C)C[C@@H](C(=O)N1C[C@]2(C[C@H]1C#N)C(=O)Nc1ccccc12)N(C)C(=O)c1ccn(C)n1 [Example 204] | < 100
39 | CC(C)C[C@@H](C(=O)N1C[C@]2(C[C@H]1C#N)C(=O)Nc1ccccc12)N(C)C(=O)c1nc2ccccc2[nH]1 [Example 205] | < 100
40 | CC(C)C[C@@H](C(=O)N1C[C@]2(C[C@H]1C#N)C(=O)Nc1ccccc12)N(C)C(=O)c1nc2ccccc2s1 [Example 206] | < 100
41 | CC(C)C[C@@H](C(=O)N1C[C@]2(C[C@H]1C#N)C(=O)Nc1ccccc12)N(C)C(=O)c1cc2ccccc2s1 [Example 207] | < 100
42 | CC(C)C[C@@H](C(=O)N1C[C@]2(C[C@H]1C#N)C(=O)Nc1ccccc12)N(C)C(=O)c1cc2ccccc2o1 [Example 208] | < 100
43 | CC(C)C[C@@H](C(=O)N1C[C@]2(C[C@H]1C#N)C(=O)Nc1ccccc12)N(C)C(=O)c1cc2sccc2[nH]1 [Example 209] | < 100
44 | CC(C)C[C@@H](C(=O)N1C[C@]2(C[C@H]1C#N)C(=O)Nc1ccccc12)N(C)C(=O)c1ccc2ncccc2c1 [Example 210] | < 100
45 | CC(C)C[C@@H](C(=O)N1C[C@]2(C[C@H]1C#N)C(=O)Nc1ccccc12)N(C)C(=O)c1ccc2ccccc2n1 [Example 211] | < 100
